Laboratory results: paper PMC9596378, “Discovery and molecular basis of subtype-selective cyclophilin inhibitors” (Nature Chemical Biology, 2022)
“And” between values parts separate entries of the source, which are not always exact repeats. Identical values can stand only once. Like-named read-outs stand apart in the source and are kept apart here.

Tests used:
Experiment in all cases: Chymotrypsin coupled prolyl-isomerase assay
Type in all cases: biochemical
[1] = molecular target: T1, CypH (Homo sapiens, UniProt O43447)
T1 construct: PPIH (UniProtKB Entry O43447: residues 1–177); His6 with TEV site (2BT vector leader) (N); made in house; host or cells: E. coli BL21(DE3)
Procedure, shortened: (§1)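 Chymotrypsin-coupled cis–trans isomerization of Suc-AAPF-AMC (5 µM) catalysed by 5 nM cyclophilin, run cold (2–3 °C) at pH 7.3 with 5 min compound preincubation.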

[2] = molecular target: T2, CypA (Homo sapiens, UniProt P62937)
T2 construct: PPIA (UniProtKB Entry P62937: residues 1–165); made in house; host or cells: E. coli BL21(DE3)
Procedure, shortened: as §1

[3] = molecular target: T3, CypC (Homo sapiens, UniProt P45877)
T3 construct: PPIC (UniProtKB Entry P45877: residues 24–212); host or cells: E. coli BL21(DE3)
Procedure, shortened: as §1

[4] = molecular target: T4, CypE (Homo sapiens, UniProt Q9UNP9); conditions: for IC50: read-out: IC50 CypE
T4 construct: PPIE (UniProtKB Entry Q9UNP9: residues 131–301); host or cells: E. coli BL21(DE3)
Procedure, shortened: as §1

T3 sequence (P45877 24-212): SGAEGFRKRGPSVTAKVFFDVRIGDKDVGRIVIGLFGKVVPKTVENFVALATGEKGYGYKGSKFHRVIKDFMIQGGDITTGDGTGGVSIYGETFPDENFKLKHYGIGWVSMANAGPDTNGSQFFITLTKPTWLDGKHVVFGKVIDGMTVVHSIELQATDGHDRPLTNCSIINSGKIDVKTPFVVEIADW
T2 sequence (P62937 whole entry, the tested form may be a part): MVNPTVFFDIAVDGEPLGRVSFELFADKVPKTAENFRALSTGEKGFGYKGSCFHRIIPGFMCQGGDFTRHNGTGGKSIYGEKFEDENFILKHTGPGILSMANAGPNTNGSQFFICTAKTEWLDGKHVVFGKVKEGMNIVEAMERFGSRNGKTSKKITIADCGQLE
T1 sequence (O43447 whole entry, the tested form may be a part): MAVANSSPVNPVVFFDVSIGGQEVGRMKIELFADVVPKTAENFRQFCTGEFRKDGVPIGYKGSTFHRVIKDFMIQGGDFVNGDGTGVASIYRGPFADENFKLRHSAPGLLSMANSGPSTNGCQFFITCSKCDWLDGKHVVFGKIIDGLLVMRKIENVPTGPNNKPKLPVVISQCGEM
T4 sequence (Q9UNP9 131-301): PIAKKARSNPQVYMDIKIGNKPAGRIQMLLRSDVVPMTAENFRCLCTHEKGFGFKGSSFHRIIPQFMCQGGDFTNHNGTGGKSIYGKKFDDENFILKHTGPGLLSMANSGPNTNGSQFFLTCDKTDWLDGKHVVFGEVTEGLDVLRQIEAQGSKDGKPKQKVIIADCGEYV

Compound: NC(=O)C1CCNC(=O)C=CC(=O)N2CCCC(Cc3ccccc3)(C2)C(=O)NC(Cc2ccc(-c3ccc(C=O)c(B(O)O)c3)cc2)C(=O)NCc2ccccc2CC(=O)N1 (stereo not shown) [Compound C3A]
- CypH prolyl-isomerase raw dose-response reading (Fig. 6c) ([1]; Dose 0.00457247 µM): 0.05086 and 0.04496
- CypH prolyl-isomerase raw dose-response reading (Fig. 6c) ([1]; Dose 0.0137174 µM): 0.05594 and 0.04525 and 0.04484
- CypH prolyl-isomerase raw dose-response reading (Fig. 6c) ([1]; Dose 0.0411523 µM): 0.05731 and 0.04453 and 0.05359
- CypH prolyl-isomerase raw dose-response reading (Fig. 6c) ([1]; Dose 0.123457 µM): 0.05145 and 0.04681 and 0.07329
- CypH prolyl-isomerase raw dose-response reading (Fig. 6c) ([1]; Dose 0.37037 µM): 0.05882 and 0.04794 and 0.07376
- CypH prolyl-isomerase raw dose-response reading (Fig. 6c) ([1]; Dose 1.11111 µM): 0.06718 and 0.05255 and 0.05895
- CypH prolyl-isomerase raw dose-response reading (Fig. 6c) ([1]; Dose 3.33333 µM): 0.06287 and 0.05436 and 0.04825
- CypH prolyl-isomerase raw dose-response reading (Fig. 6c) ([1]; Dose 10 µM): 0.04443 and 0.06084 and 0.04295
- IC50 ([1]; Independent replicate 1, read-out: IC50 CypH): > 10 µM
- IC50 ([1]; Independent replicate 2, read-out: IC50 CypH): > 50 µM
- IC50 ([1]; Independent replicate 3, read-out: IC50 CypH): ~40 µM
- IC50 ([1]; Independent replicate 4, read-out: IC50 CypH): > 50 µM
- IC50 ([1]; prolyl-isomerase inhibition, 5 nM cyclophilin, read-out: IC50 CypH): > 50 µM
- IC50 ([1]; wild-type CypH, read-out: Wild-Type Cyclophilin Prolyl Isomerase Inhibition IC50 Values, CypH): > 50 µM
- CypA prolyl-isomerase raw dose-response reading (Fig. 6c) ([2]; Dose 0.00114312 µM): 0.07306 and 0.07874 and 0.07172
- CypA prolyl-isomerase raw dose-response reading (Fig. 6c) ([2]; Dose 0.00342936 µM): 0.06275 and 0.05859
- CypA prolyl-isomerase raw dose-response reading (Fig. 6c) ([2]; Dose 0.0102881 µM): 0.07757 and 0.05083 and 0.08593
- CypA prolyl-isomerase raw dose-response reading (Fig. 6c) ([2]; Dose 0.0308642 µM): 0.09366 and 0.07648 and 0.07092
- CypA prolyl-isomerase raw dose-response reading (Fig. 6c) ([2]; Dose 0.0925926 µM): 0.1069 and 0.06289 and 0.07689
- CypA prolyl-isomerase raw dose-response reading (Fig. 6c) ([2]; Dose 0.205761 µM): 0.06396 and 0.05394 and 0.06349 and 0.0486 and 0.04768 and 0.0647 and 0.04401 and 0.05288
- CypA prolyl-isomerase raw dose-response reading (Fig. 6c) ([2]; Dose 0.277778 µM): 0.09488 and 0.06 and 0.09425
- CypA prolyl-isomerase raw dose-response reading (Fig. 6c) ([2]; Dose 0.833333 µM): 0.06403 and 0.06231 and 0.07443
- CypA prolyl-isomerase raw dose-response reading (Fig. 6c) ([2]; Dose 2.5 µM): 0.06101 and 0.05306 and 0.05126
- IC50 ([2]; Independent replicate 1, read-out: IC50 CypA): ~3 µM
- IC50 ([2]; Independent replicate 2, read-out: IC50 CypA): 2.2 ± 0.7 µM
- IC50 ([2]; Independent replicate 3, read-out: IC50 CypA): 1.6 ± 0.7 µM
- IC50 ([2]; Independent replicate 4, read-out: IC50 CypA): 4 ± 2 µM
- IC50 ([2]; wild-type CypA, read-out: Wild-Type Cyclophilin Prolyl Isomerase Inhibition IC50 Values, CypA): 3 µM
- CypC prolyl-isomerase raw dose-response reading (Fig. 6c) ([3]; Dose 0.00457247 µM): 0.03895 and 0.0375
- CypC prolyl-isomerase raw dose-response reading (Fig. 6c) ([3]; Dose 0.0137174 µM): 0.04174 and 0.04247 and 0.04306
- CypC prolyl-isomerase raw dose-response reading (Fig. 6c) ([3]; Dose 0.0411523 µM): 0.05121 and 0.04011 and 0.04386
- CypC prolyl-isomerase raw dose-response reading (Fig. 6c) ([3]; Dose 0.123457 µM): 0.05033 and 0.03342 and 0.04085
- CypC prolyl-isomerase raw dose-response reading (Fig. 6c) ([3]; Dose 0.37037 µM): 0.03932 and 0.03966 and 0.05738
- CypC prolyl-isomerase raw dose-response reading (Fig. 6c) ([3]; Dose 1.11111 µM): 0.0536 and 0.03667 and 0.04316
- CypC prolyl-isomerase raw dose-response reading (Fig. 6c) ([3]; Dose 3.33333 µM): 0.03577 and 0.0377 and 0.04529
- CypC prolyl-isomerase raw dose-response reading (Fig. 6c) ([3]; Dose 10 µM): 0.03905 and 0.04054 and 0.0318
- IC50 ([3]; Independent replicate 1, read-out: IC50 CypC): > 10 µM
- IC50 ([3]; Independent replicate 2, read-out: IC50 CypC): 15 ± 4 µM
- IC50 ([3]; Independent replicate 3, read-out: IC50 CypC): 20 ± 10 µM
- IC50 ([3]; Independent replicate 4, read-out: IC50 CypC): 19 ± 9 µM
- IC50 ([3]; wild-type CypC, read-out: Wild-Type Cyclophilin Prolyl Isomerase Inhibition IC50 Values, CypC): 17 µM
- higher CypE inhibition potency of C3A over C5A [4]: 75 fold
- selectivity for CypE over CypA [4]: > 100 fold
- IC50 ([4]; Independent replicate 1): 0.013 ± 0.003 µM
- IC50 ([4]; Independent replicate 2): 0.018 ± 0.006 µM
- IC50 ([4]; Independent replicate 3): 0.009 ± 0.002 µM
